Experimental data taken from patent US10344032B2, “Agents for treating neurogenic inflammation and neuropathic hyperalgesia related disorders” (PÉCSI TUDOMÁNYEGYETEM, priority 2014, dated 2019).

What was measured:
rat [1] = experiment: Mustard oil-induced acute neurogenic inflammation in the paw skin of the rat (Evans blue leakage); assay type: in vivo; conditions: 100 μg/kg p.o. 60 min before 1% mustard oil; vs vehicle-treated control; listed as BST-1693
Protocol: Deep anaesthesia was performed with sodium-thiopental (50 mg/kg i.p.). Both hindlegs of the rats were acutely denervated (the sciatic and the saphenous nerves were cut 30 min before the induction of inflammation) to avoid the influence of reflex mechanisms. Inflammation in the dorsal skin of the hindpaws was evoked by topical application of 1% mustard oil dissolved in paraffin oil. This compound selectively activates capsaicin-sensitive peptidergic fibres through the TRPA1 ion channel, therefore induces acute inflammatory reaction with exclusively neurogenic mechanisms via the release of pro-inflammatory sensory neuropeptides, such as substance P and CGRP. Extravasation of plasma albumin was measured by the Evans blue leakage method (see FIG. 2). Evans blue (50 mg/kg) which binds to plasma albumine, was injected i.v. and neurogenic inflammation was induced 5 min later. […] The amount of the accumulated Evans blue, which quantitatively correlates with the intensity of plasma extravasation, was expressed as μg dye/g wet skin (Helyes et at, 1997, 2001, 2006; Borzsei et al., 2008). […]
Extravasation of plasma albumin in the dorsal skin of the hindpaws was measured by the Evans blue leakage method. […] The skin of the hindpaws was removed, their weight was measured and the extravasated dye was extracted with formamide at room temperature during 72 h for photometric determination at 620 nm. […]

rat [2] = experiment: Partial sciatic nerve ligation (Seltzer operation) mechanical hyperalgesia (Randall-Selitto test); assay type: in vivo; conditions: 100 μg/kg p.o., 60 min; 7 days after partial sciatic nerve ligation; Randall-Sellitto test
Protocol: Wistar rats were anaesthetised with sodium-pentobarbital (Euthasol, 50 mg/kg i.p.). The common sciatic nerve was exposed unilaterally on the right side high in the thigh and ⅓-½ of the nerve trunk was carefully separated and tightly ligated using a siliconised silk suture (Ethicone 9-0). Then the wound was closed and the animals were allowed to survive for 7 days (Seltzer et al., 1990). During this period, signs of spontaneous pain (holding the legs in elevated position), mechanical hyperalgesia and allodynia developed.
Mechanonociceptive threshold of the hindpaws was measured with analgesimetry (Randall-Sellitto test) and touch sensitivity of the plantar surface with dynamic plantar aesthesiometry on the same animals. Hyperalgesia (decrease of the mechanonociceptive threshold) and allodynia (decrease of touch sensitivity) were expressed in % compared to the initial pre-operation control values. Significant decrease of the mechanonociceptive thresholds, as well as touch sensitivity thresholds developed 7 days after the surgery (Szolcsanyi et al. 2003; Sandor et al. 2006). […]
b) The mechanonociceptive thresholds of the hindpaw was measured with the Ugo Basile Analgesimeter (7210, Comerio, Italy; Randall-Selitto test). […] The threshold force which elicited withdrawal was read on an analog scale calibrated in grams. […]

rat [3] = experiment: Plantar incision-induced mechanical allodynia (dynamic plantar aesthesiometer), postoperative pain model; assay type: in vivo; conditions: 100 μg/kg p.o., measured 60 min later; one day after plantar incision; dynamic plantar aesthesiometry
Protocol: Rats were anaesthesized with sodium-pentobarbital (Euthasol, 40 mg/kg i.p.) and a 1 cm longitudinal incision was made through the skin, fascia and muscle of the plantar aspect of the hindpaw. Significant decrease of both the thermonociceptive and mechanonociceptive thresholds (heat and mechanical allodynia) of the paw develops 1 day after this procedure.
One hundred and forty five (145) female Wistar rats (150-250 g) kept in the Animal House of the University of Pecs in a temperature-controlled room provided with a 12-hour light-dark cycle, standard rat chow and water ad libitum were used in this experimental series. They were brought to the air-conditioned laboratory the day before the experiment started. Throughout the total study the same assistant handled all the animals. […] Touch sensitivity was measured with a dynamic plantar aesthesiometer (DPA) and the thermonociceptive threshold was determined with an increasing temperature water-bath (ITWB) on the same rats (see below). […] Test compounds were administered p.o. and post-dose touch sensitivity and thermonociceptive thresholds were measured 60 min later. […]
a) Touch sensitivity of the plantar surface of the paw was measured with the Ugo Basile Dynamic Plantar Aesthesiometer (DPA; 37400, Comerio, Italy), which is an electronic von Frey device. […]

[4] = tested on: sensory nerve terminals of isolated rat tracheae; experiment: Electrical field stimulation-induced release of CGRP from sensory nerve terminals of isolated rat tracheae; conditions: 500 nM; absolute release = stimulated + post-stimulated fractions minus basal release
Protocol: Rats were exsanguinated in deep anaesthesia (sodium thiopental, 50 mg/kg i.p.), then the whole trachea was removed and cleaned of fat and adhering connective tissues. Tracheae from two rats were placed into the same 1.8 ml organ bath to obtain sufficient amount of released peptide and perfused (1 ml/min) with pH—(7.2) controlled oxygenized Krebs solution for 60 minutes (equilibration period) at 37° C. temperature. After discontinuation of the flow, the solution was changed three times for 8 minutes to produce pre-stimulated, stimulated, post-stimulated fractions. Electrical field stimulation (40 V, 0.1 ms, 10 Hz for 120 s; 1200 pulses) was performed to elicit neurotransmitter release at the beginning of the second 8-minute period. […]
CGRP concentration was determined from 400-400 μl samples of the organ bath solutions by means of a selective and sensitive radioimmunoassay method developed in our laboratories and described in details in several previous papers (Nemeth et al. 1998, 1999, 2006; Helyes et al., 1997, 2001, 2006; Borzsei et al., 2008). The released amount of the peptides was calculated as fmol peptide per mg wet tissue (trachea). The absolute EFS-induced CGRP outflow in each experiment was calculated by taking off the basal release measured in the first (pre-stimulated) fraction from the second and third 8-min fractions and then adding these values. […]

| melting point | SMILES | inhibition of acute neurogenic inflammatory response (Evans blue accumulation in hindpaw skin) (rat [1]) | reduction of mechanical hyperalgesia (rat [2]) | decrease of mechanical allodynia (rat [3]) | inhibition on the absolute CGRP release [4] |
| --- | --- | --- | --- | --- | --- |
| 150.7 to 151.8 °C | Cc1c(C)n(Cc2ccccc2)c2ncnc(NCCc3ccc(N)cc3)c12 [Example 1, [2-(4-Amino-phenyl)-ethyl]-(7-benzyl-5,6-dimethyl-7H-pyrrolo[2,3-d]pyrimidin-4-yl)-amine] | 70.4% | – | – | – |
| 198 to 199 °C | Cc1c(C)n(Cc2ccccc2)c2ncnc(NCCc3ccc(O)cc3)c12 [Example 4, 4-[2-(7-Benzyl-5,6-dimethyl-7H-pyrrolo[2,3-d]pyrimidin-4-ylamino)-ethyl]-phenol] | – | 46% | – | – |
| 205 to 207 °C | Cc1c(C)n(Cc2ccccc2)c2ncnc(NCCc3cccc(Cl)c3)c12 [Example 39, (7-Benzyl-5,6-dimethyl-7H-pyrrolo[2,3-d]pyrimidin-4-yl)-[2-(3-chloro-phenyl)-ethyl]-amine] | – | 31% | – | – |
| 132.7 to 133.7 °C | CC(=O)Nc1ccc(CCNc2ncnc3c2c(C)c(C)n3CCCN(C)C)cc1 [Example 51, N-(4-{2-[7-(3-Dimethylamino-propyl)-5,6-dimethyl-7H-pyrrolo[2,3-d]pyrimidin-4-ylamino]-ethyl}-phenyl)-acetamide] | – | – | 63% | 79.55% |
